Assay results reported in patent publication US20250352563A1, “Method and Use of Psilocybin in the Prevention and Treatment of Stroke” (Revive Therapeutics Ltd, priority 2022, published 2025).

Columns and labels:
stroke rats (MCAo) [1] = experiment: ANA12 antagonism of psilocybin-mediated neuroprotection in MCAo stroke rats; assay type: in vivo, rat
[2] = tested on: primary cortical neuronal culture; experiment: ANA12 antagonism of psilocybin-mediated protection in primary cortical neuronal culture; conditions: Glu 100 μM + Psi 10 μM + ANA 10 μM; p<0.05, one-way ANOVA
Text: A selective BDNF antagonist ANA12 was included on D10 along with psilocybin and glutamate (see timeline in FIG. 6C).

[3] = tested on: rat model of stroke (MCAo); conditions: intraperitoneal injection prior to MCAo; cited from earlier work
[4] = tested on: rat primary cortical neuronal culture; experiment: Glutamate neurotoxicity in primary cortical neuronal culture (MAP2 immunocytochemistry)
stroke rats (MCAo) [5] = experiment: Pre-stroke i.c.v. treatment, brain infarction by TTC staining in MCAo stroke rats; assay type: in vivo, rat; conditions: i.c.v. pretreatment, day 2
[6] = tested on: MAP2, synaptophysin (SYP), IBA1, and BDNF expression; experiment: Post-stroke i.p. treatment, qRT-PCR of lesioned cerebral cortex; assay type: in vivo, rat; conditions: 1 mg/kg/d i.p. days 3-7, cortex day 9
[7] = non-lesioned brain; cited from earlier work
stroke rats (MCAo) [8] = experiment: Post-stroke i.p. treatment, neurological and locomotor tests in MCAo stroke rats; conditions: 1 mg/kg/d i.p. days 3 to 7 after MCAo
Experimental: In the posttreatment group, Psilocybin (1 mg/kg/day, n=7) or vehicle (n=6) was administered i.p. from day 3 to day 7.
(b) Neurological deficits were scored by the Bederson's neurological test (35, 36). In a postural reflex test, rats were examined for the degree of abnormal posture when suspended by 20-30 cm above the testing table. They were scored according to the following criteria. • 0 Rats extend both forelimbs straight. No observable deficit. • 1 Rats keep the one forelimb to the breast and extend the other forelimb straight. • 2 Rats show decreased resistance to lateral push in addition to behavior in score 1 without circling. • 3 Rats twist the upper half of their body in addition to behavior in score 2.
(§1) Locomotion was measured using an infrared activity monitor (Accuscan, Columbus, OH) as we previously described (19, 37). Rats were individually placed in a 3D infrared behavior chamber (42×42×21 cm) for 60 min. Four parameters were recorded: (a) horizontal activity (HACTV, the total number of beam interruptions that occurred in the horizontal sensors), (b) total distance traveled (TOTDIST, the distance, in centimeters, traveled by the animals), and (c) No. of movements (MOVNO), (d) horizontal movements time (MOVTIME).
Psilocybin (1 mg/kg/d, n=7) or vehicle (n=6) was delivered systemically (i.p.) from days 3 to 7 after the MCAo. Neurological and locomotor tests were examined on day 9 (FIG. 4A).

stroke rats (MCAo) [9] = experiment: Pre-stroke i.c.v. treatment, neurological and locomotor tests in MCAo stroke rats; conditions: D2
Experimental: Psilocybin or vehicle was given before or after the MCAo. For the pretreatment, animals were anesthetized. Psilocybin (100 μM×20 μL, n=7) or vehicle (saline, 20 μl, n=7) was administered intracerebroventricularly (i.c.v., AP, −0.8 mm; LV, −1.5 mm; DV, −3.5 mm) at 15 min before MCAo through a Hamilton microsyringe. The speed of injection was controlled by a syringe pump (Micro 4, WPI, Sarasota, FL).
The right middle cerebral artery (MCA) was transiently occluded (MCAo) as we previously described (33). In brief, the bilateral common carotids were clamped with nontraumatic arterial clips. The right MCA was ligated with a 10-O suture to generate focal infarction in the cerebral cortex. The ligature and clips were removed after 60 min ischemia to generate reperfusion injury. Core body temperature was monitored with a thermistor probe and maintained at 37° C. with a heating pad during anesthesia. After recovery from anesthesia, body temperature was maintained at 37° C. using a temperature-controlled incubator.
as §1
A total of 14 adult rats were used for this analysis. Psilocybin (100 μM×20 μL, n=7) or vehicle (saline, 20 μL, n=7) was delivered to the lateral ventricle (i.c.v., coordinates: AP:0.8 mm, Lat:1.5 mm, DV −3.5 mm) at 10-15 min prior to the a 60-min MCAo. Behavioral tests were conducted two days (or D2) after MCAo (FIG. 2A). […] Locomotoractivity was examined in infra-red activity chambers for one hour.

[10] = ANA12 100 μM×20 μL/d intranasally days 0 and 1, Psilocybin i.c.v. prior to MCAo
[11] = stroke reduced expression, p<0.05

**Q.** Which “Psilocybin-mediated improvement in horizontal activity” value (stroke rats (MCAo) [1]; [10]) does the source give for `O=C(Nc1ccccc1C(=O)NC1CCCCNC1=O)c1cc2ccccc2s1` (centres unmarked) [ANA12] here?
**A.** Its value is “significantly antagonized”.

**Q.** What about the “Psilocybin-mediated improvement in total distance traveled” value (stroke rats (MCAo) [1]; [10]) of the same molecule?
**A.** The value was “significantly antagonized”.

**Q.** What about the “psilocybin-mediated improvement in neurological behavior” value (stroke rats (MCAo) [1]; [10]) of the same molecule?
**A.** Its value is “significantly antagonized”.

**Q.** And the “psilocybin-mediated reduction in brain infarction” value (stroke rats (MCAo) [1]; ANA12 100 μM×20 μL/d intranasally days 0 and 1 after MCAo, Psilocybin i.c.v. 100 μM×20 μl 15 min prior)?
**A.** Its value is “significantly antagonized”.

**Q.** What about the “psilocybin-mediated improvement in MAP2-ir” value [2] of the same molecule?
**A.** Its value is “significantly antagonized”.

**Q.** Which results are given for `CN(C)CCc1c[nH]c2ccccc12` [DMT, N,N-dimethyltryptamine]?
**A.** BDNF expression [3]: increased; brain infarction [3]: reduced; brain inflammation [3]: reduced; staircase behavior [3]: improved

**Q.** Which “MAP2 immunoreactivity (MAP2-ir)” value ([4]; Glutamate 100 μM added on DIV10, fixed DIV12, p<0.001) does the source give for `N[C@@H](CCC(=O)O)C(=O)O` [Glutamate] here?
**A.** Its value is “significantly reduced”.

**Q.** Which results are given for `CN(C)CCc1c[nH]c2cccc(OP(=O)(O)O)c12` [Psilocybin, 4-phosphoryloxy-N,N-dimethyltryptamine]?
**A.** area of infarction in each 2-mm slice (stroke rats (MCAo) [5]; p<0.001, two-way ANOVA, difference mainly on rostral slices): significantly lowered infarction; infarct volume (TTC staining) (stroke rats (MCAo) [5]; typical TTC staining FIG. 3A): reduced the infarct volume; expression of BDNF in the lesioned brain (qRTPCR) ([6]; p=0.01, stroke vs. stroke+PSI): significantly upregulated; expression of MAP2 in the stroke brain (qRTPCR) [6, 11]: significantly normalized; expression of synaptophysin (SYP) in the stroke brain (qRTPCR) [6, 11]: significantly normalized; expression of IBA1 in the stroke brain (qRTPCR) ([6]; stroke upregulated expression, p<0.05): significantly normalized; crossing of the blood-brain barrier [7]: inefficient to freely cross the blood-brain barrier; horizontal activity (stroke rats (MCAo) [8]; day 9, p=0.011): increased; total distance traveled (stroke rats (MCAo) [8]; day 9, p=0.018): increased; movement number (stroke rats (MCAo) [8]; day 9, p=0.023): increased; movement time (stroke rats (MCAo) [8]; day 9, p=0.034): increased; body asymmetry (stroke rats (MCAo) [8]; day 9, p=0.0445): significantly reduced; Bederson's neurological test (stroke rats (MCAo) [8]; tested day 9, p=0.0421): significantly reduced; body asymmetry (stroke rats (MCAo) [9]; 100 μM×20 μL i.c.v. 10-15 min prior to MCAo, p=0.00345): significantly decreased; horizontal activity (HACTV) (stroke rats (MCAo) [9]; 100 μM×20 μL i.c.v. prior to MCAo, one hour, p=0.0246): significantly increased; movement time (MOVTIME) (stroke rats (MCAo) [9]; 100 μM×20 μL i.c.v. prior to MCAo, p=0.00351): significantly increased; total distance traveled (TOTODIST) (stroke rats (MCAo) [9]; 100 μM×20 μL i.c.v. prior to MCAo, p=0.0103): significantly increased; movement number (MOVNO) (stroke rats (MCAo) [9]; 100 μM×20 μL i.c.v. prior to MCAo, p=0.0479): significantly increased; Glu-mediated neuronal loss (MAP2-ir) ([4]; Glu 100 μM, Psi 10 μM, photomicrographs FIG. 1A): antagonized
